Laboratory results reported in patent US20260325605A1, “INHIBITORS” (Zealand Pharma A/S, priority 2022, published 2026).

Key:
Kv1.2 = target: T1, Kv1.2 (Homo sapiens, UniProt P16389); assay: Patch clamp assay (QPatch), Kv1.2; type: cell-based; settings: for IC50: QPatch, CHO cells stably expressing human Kv1.2, read-out: Potency IC50, Kv1.2; for Selectivity Kv1.2/Kv1.3: ratio of IC50 Kv1.2/Kv1.3
T1 construct: expressed in transfected cells

Kv1.6 = target: T2, Kv1.6 (Homo sapiens, UniProt P17658); assay: Patch clamp assay (QPatch), Kv1.6; type: cell-based; settings: for IC50: QPatch, CHO cells stably expressing human Kv1.6, read-out: Potency IC50, Kv1.6; for Selectivity Kv1.6/Kv1.3: ratio of IC50 Kv1.6/Kv1.3
T2 construct: expressed in transfected cells
T2 sequence (P17658 whole entry): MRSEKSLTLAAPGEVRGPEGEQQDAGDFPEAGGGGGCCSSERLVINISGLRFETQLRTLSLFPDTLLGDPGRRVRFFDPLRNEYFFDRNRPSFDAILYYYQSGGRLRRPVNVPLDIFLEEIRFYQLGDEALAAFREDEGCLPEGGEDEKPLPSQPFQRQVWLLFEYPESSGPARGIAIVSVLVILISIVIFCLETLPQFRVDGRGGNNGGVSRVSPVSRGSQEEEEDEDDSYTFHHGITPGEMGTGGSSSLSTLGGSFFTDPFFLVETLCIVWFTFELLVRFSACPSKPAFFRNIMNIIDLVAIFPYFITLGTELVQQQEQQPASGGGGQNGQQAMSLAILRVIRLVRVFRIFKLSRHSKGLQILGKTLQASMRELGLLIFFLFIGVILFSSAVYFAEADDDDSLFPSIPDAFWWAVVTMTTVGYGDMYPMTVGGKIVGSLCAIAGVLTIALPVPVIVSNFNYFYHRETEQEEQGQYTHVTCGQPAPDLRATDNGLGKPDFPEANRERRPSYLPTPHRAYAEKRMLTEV
Procedure: Selectivity of Kv1.3 inhibitor peptides for Kv1.3 over other potassium ion channels (Kv1.1, Kv1.2 and Kv1.6) was determined using patch clamp assay.
Chinese Hamster Ovary (CHO) cell lines stably expressing exogenous human α-subunits of each potassium ion channel were grown and passaged under standard culture conditions.
The automated, chip-based planar patch clamp device QPatch® was used to quantitate the ionic currents. All recordings were made in the conventional whole-cell configuration after establishment of gigaohm seals. […] During experiments 0.1% (v/v) BSA was included as a vehicle in all external recording solutions. Currents were elicited from a holding potential of −80 mV using a voltage protocol, which shifted the voltage to 30 mV for 500 ms every 15 s.
Concentration-response relationships were established by cumulatively applying seven escalating concentrations of test sample to an individual cell with a recording period of 2 min per compound application.
The efficacy was determined as the mean charge for the last three sweeps at the end of each concentration application period from the cursor positions. The percent inhibition for each test dose application period was calculated as the reduction in mean cursor value (charge) relative to the cursor value measured at the end of the vehicle period and used to calculate the IC50 from the concentration response curve.

Kv1.1 = target: T3, Kv1.1 (Homo sapiens, UniProt Q09470); assay: Patch clamp assay (QPatch), Kv1.1; type: cell-based; settings: for IC50: QPatch, CHO cells stably expressing human Kv1.1, read-out: Potency IC50, Kv1.1; for Selectivity Kv1.1/Kv1.3: ratio of IC50 Kv1.1/Kv1.3
T3 construct: expressed in transfected cells
T3 sequence (Q09470 whole entry): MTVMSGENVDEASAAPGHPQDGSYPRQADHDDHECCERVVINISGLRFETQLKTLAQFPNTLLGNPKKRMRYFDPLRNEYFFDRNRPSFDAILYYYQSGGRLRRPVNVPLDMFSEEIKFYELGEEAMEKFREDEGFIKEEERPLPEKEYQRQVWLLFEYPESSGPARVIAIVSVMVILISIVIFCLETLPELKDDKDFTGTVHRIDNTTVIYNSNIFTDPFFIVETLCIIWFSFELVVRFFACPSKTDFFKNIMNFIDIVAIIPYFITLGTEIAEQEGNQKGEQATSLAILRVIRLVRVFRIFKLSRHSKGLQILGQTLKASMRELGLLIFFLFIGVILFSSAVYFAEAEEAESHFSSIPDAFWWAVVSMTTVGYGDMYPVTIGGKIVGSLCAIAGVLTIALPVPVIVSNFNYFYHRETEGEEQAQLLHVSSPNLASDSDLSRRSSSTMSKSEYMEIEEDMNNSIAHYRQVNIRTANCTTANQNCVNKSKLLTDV

[1] = Example 6: Pharmacokinetic characterisation after s.c. administration; type: in vivo, rat (Sprague Dawley or Wistar); settings: rat, 70 nmol/kg; for AUCINF / Cmax: plasma; for T1/2: plasma terminal elimination half-life
Procedure: Sprague Dawley or Wistar rats (males with a body weight of approximately 250-350 g) were given a single subcutaneous (s.c.) injection of each peptide to be tested.
Following s.c. administration of the selected peptides (dose 70 nmol/kg, dosing volume either 2 or 5 mL/kg), blood samples were drawn at 15 min, 30 min, 45 min, 60 min, 90 min, 2 h, 3 h, 4 h post-dose. At each sampling time point, samples from the rats were drawn by sublingual bleeding or by tail cut. After last sampling the rats were sacrificed by O2/CO2 anaesthesia. The dosing vehicle was 10 mM phosphate, 0.8% NaCl, 0.05% Polysorbate 20 (pH 6.0).
Plasma samples were analyzed after solid phase extraction (SPE) by liquid chromatography mass spectrometry (LC-MS/MS). Mean plasma concentrations were used for calculation of the pharmacokinetic parameters using the non-compartmental approach in Phoenix WinNonlin 6.4 or a later version. […]. AUCinf is the area under the plasma concentration−time curve extrapolated to infinity (AUCinf=AUClast+Clast/λz, where Clast is the last observed plasma concentration). Cmax is the maximum observed concentration, occurring at Tmax.

Kv1.3 = target: T4, Kv1.3 (Homo sapiens, UniProt P22001); assay: Patch clamp assay (QPatch), Kv1.3; type: cell-based; settings: CHO cells stably expressing human Kv1.3, read-out: Potency IC50, Kv1.3
T4 construct: expressed in transfected cells
T4 sequence (P22001 whole entry): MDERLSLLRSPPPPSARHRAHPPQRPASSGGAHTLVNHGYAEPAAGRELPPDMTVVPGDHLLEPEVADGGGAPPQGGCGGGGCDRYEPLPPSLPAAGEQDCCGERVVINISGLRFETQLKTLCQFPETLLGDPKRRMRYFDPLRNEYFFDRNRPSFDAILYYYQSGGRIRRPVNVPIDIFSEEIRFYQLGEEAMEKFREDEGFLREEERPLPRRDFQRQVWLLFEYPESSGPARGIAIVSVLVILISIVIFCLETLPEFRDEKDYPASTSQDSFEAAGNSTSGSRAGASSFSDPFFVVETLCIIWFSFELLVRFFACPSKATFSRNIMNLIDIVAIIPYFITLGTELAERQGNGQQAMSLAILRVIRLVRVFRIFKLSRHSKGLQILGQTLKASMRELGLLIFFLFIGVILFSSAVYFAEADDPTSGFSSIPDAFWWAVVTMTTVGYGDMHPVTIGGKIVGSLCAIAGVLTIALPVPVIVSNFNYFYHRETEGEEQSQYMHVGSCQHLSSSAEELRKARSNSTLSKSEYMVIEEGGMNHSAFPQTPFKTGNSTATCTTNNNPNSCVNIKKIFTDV

[2] = test system: T-cell activation in rat whole blood; assay: Example 4: IL-17A release in thapsigargin stimulated rat whole blood; type: cell-based, rat (Lewis or Sprague-Dawley); settings: 24 Hr, at least 2 replicates, unit inferred, read-out: IC50 (inhibition of IL-17A release)
In short: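 Heparinised whole blood from naïve Lewis or Sprague-Dawley rats preincubated ≥5 min at RT with peptide, then stimulated with thapsigargin (40 μM stock added as one quarter of well volume) for 24 h at 37 °C. Supernatant IL-17A measured by ELISA; IC50 from curves normalised to stimulated and unstimulated controls, ≥2 replicates.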

T1 sequence (P16389 whole entry): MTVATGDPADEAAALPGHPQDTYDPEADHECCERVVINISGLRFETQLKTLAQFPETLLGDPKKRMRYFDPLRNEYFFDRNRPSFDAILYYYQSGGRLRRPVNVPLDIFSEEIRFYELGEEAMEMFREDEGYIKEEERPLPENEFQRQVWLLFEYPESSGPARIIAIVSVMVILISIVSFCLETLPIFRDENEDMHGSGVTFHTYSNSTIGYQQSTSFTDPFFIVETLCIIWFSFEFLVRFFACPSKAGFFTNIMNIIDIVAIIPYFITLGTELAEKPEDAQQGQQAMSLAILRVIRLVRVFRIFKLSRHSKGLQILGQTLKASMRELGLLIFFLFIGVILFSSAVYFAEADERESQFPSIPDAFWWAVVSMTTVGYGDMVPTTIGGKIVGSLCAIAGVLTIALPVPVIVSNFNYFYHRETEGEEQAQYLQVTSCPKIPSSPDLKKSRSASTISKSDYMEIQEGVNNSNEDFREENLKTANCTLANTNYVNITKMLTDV

Substance	IC50 (Kv1.2) [nM]	Selectivity Kv1.2/Kv1.3 (Kv1.2)	IC50 (Kv1.6) [nM]	Selectivity Kv1.6/Kv1.3 (Kv1.6)	IC50 (Kv1.1) [nM]	Selectivity Kv1.1/Kv1.3 (Kv1.1)	AUCINF [1] [µM·h]	Cmax [1] [nM]	T1/2 [1] [min]	IC50 (Kv1.3) [nM]	IC50 [2] [nM]
H-MDMRC(1)SASVEC(2)KQKC(3)LKAIGSIFGKC(1)MNKKC(2)KC(3)YPR-OH [Peptide 6]	285	747	> 3000	>7900	> 3000	>7900	0.0724	48.4	55.8	0.38	
H-NIDMRC(1)SASVEC(2)KQKC(3)LKAIGSIFGKC(1)MNKKC(2)KC(3)YPR-OH [Peptide 9]	376	857	> 3000	>6800	> 3000	>6800	0.0983	76.9	37.2	0.44	
H-NID[Nle]RC(1)SASVEC(2)KQKC(3)LKAIGSIFGKC(1)[Nle]NKKC(2)KC(3)YPR-OH [Peptide 98]	2060	7756	> 3000	>11300	> 3000	>11300	0.085	46.5	65.4	0.27	1.2
H-NMDMRC(1)SASVEC(2)AQKC(3)LKAIGSIFGKC(1)MNKKC(2)KC(3)YPR-NH2 [Peptide 31]	666	4897	> 3000	>22000	> 3000	>22000	0.0467	33.3	44.4	0.14	0.41
H-NMDMRC(1)SASVEC(2)KQKC(3)LYAIGSIFGKC(1)MNKKC(2)KC(3)YPR-NH2 [Peptide 54]	149	514	> 3000	>10300	> 3000	>10300	0.0311	50	52.2	0.29	
H-N[Nle]D[Nle]RC(1)SASVEC(2)KQKC(3)LKAIGSPFGKC(1)[Nle]NKKC(2)KC(3)YPR-NH2 [Peptide 63]	449	1740	2350	9102	> 3000	>11600				0.26	0.44
H-N[Nle]D[Nle]RC(1)SHSVEC(2)KQKC(3)LKAIGSIFGKC(1)[Nle]NKKC(2)KC(3)YPR-NH2 [Peptide 48]	772	1438	609	1134	> 3000	>5600				0.54	0.83
H-N[Nle]S[Nle]RC(1)SASVEC(2)KQKC(3)LKAIGSIFGKC(1)[Nle]NKKC(2)KC(3)YPR-NH2 [Peptide 47]	302	943	1400	4359	> 3000	>9400				0.32	0.79
H-PIE[Nle]RC(1)SASVEC(2)KQKC(3)LKAIGSIFGKC(1)[Nle]NKKC(2)KC(3)YPR-OH [Peptide 99]	1760	4561	> 3000	>7800	> 3000	>7800				0.39	1.8
H-P[Nle]D[Nle]RC(1)SASVEC(2)KQKC(3)LKAIGC(4)IFGKC(1)[Nle]NKKC(2)KC(3)YPC(4)-NH2 [Peptide 85]	624	995	1220	1949	> 3000	>4800				0.63	0.81
H-P[Nle]E[Nle]RC(1)SASVEC(2)KQKC(3)LAAIGSIFGKC(1)[Nle]NKKC(2)KC(3)YPR-NH2 [Peptide 101]	311	1689	> 3000	>16200	> 3000	>16200				0.18	0.34
H-RC(1)SASVEC(2)KQKC(3)LKAIGSIFGKC(1)[Nle]NKKC(2)KC(3)YPR-NH2 [Peptide 111]	280	708	1300	3290	> 3000	>7600				0.4	0.52
H-S[Nle]DERC(1)SASVEC(2)KQKC(3)LKAIGSIFGKC(1)MNKKC(2)KC(3)YPR-NH2 [Peptide 78]	122	430	> 3000	>10600	> 3000	>10600				0.28	0.55
H-S[Nle]D[Nle]RC(1)SASVEC(2)GQKC(3)LKAIGSIFGKC(1)MNKKC(2)KC(3)YPR-NH2 [Peptide 73]	373	3438	> 3000	>27700	> 3000	>27700				0.11	0.3
H-S[Nle]D[Nle]RC(1)SASVEC(2)KQKC(3)LKAIGSIFGKC(1)MNKKC(2)KC(3)[F(4-NH2)]PR-NH2 [Peptide 72]	423	1720	> 3000	>12200	> 3000	>12200				0.25	0.79
H-[Nle]D[Nle]RC(1)SASVEC(2)KQKC(3)LKAIGSIFGKC(1)[Nle]NKKC(2)KC(3)YPR-OH [Peptide 97]	1860	11034	> 3000	>17800	> 3000	>17800				0.17	0.55
